Laboratory results: PMC11876671, “Investigating blood–brain barrier penetration and neurotoxicity of natural products for central nervous system drug development” (Scientific Reports, 2025)
Where a name gives a salt, the structure may show the parent alone. Read-outs that look alike come from different tables or passages of the source.

What was measured:
[1] = system: GFP-labeled iPSC-derived human cortical glutamatergic neurons; test: cells; type: cell-based; conditions: for AC50: Table S1, total neurite length, 48 hr, head prints no unit, µM per Table 1 and Fig. 5, read-out: TNL AC50 (48 hr)
[2] = for PAMPA-BBB Pe(10^-6 cm/sec): Table S3: compounds exhibiting low PAMPA-BBB permeability
in vitro = conditions: PAMPA, PAMPA-BBB Pe
[3] = system: GFP-labeled iPSC-derived human cortical glutamatergic neurons; test: cells; conditions: Neuron, 48 h, read-out: Viability AC50 (48hr)
[4] = Table S1, 60 min, room temperature, 0.05 mM
[5] = Table S2: compounds exhibiting moderate to high PAMPA-BBB permeability

Compound | AC50 ([1]; Homo sapiens, Neuron) | Papp (in vitro; [4]) | also measured
Desoxycortone |  |  | AC50 [1]: 33.5 µM; PAMPA-BBB Pe [2, 4]: 65.13 10^-6 cm/sec
CCCCCC(=O)Cc1cc(O)cc(O)c1C(=O)Oc1cc(CC(=O)CCCCC)c(C(=O)O)c(OC)c1 [NCGC00095554-03] | 6.66 µM |  | PAMPA-BBB Pe [2, 4]: >1000 10^-6 cm/sec; PAMPA-BBB Pe [2, 5]: >1000 10^-6 cm/sec
OCC=Cc1ccccc1 [Cinnamyl alcohol] | 5.95 µM | 97.5 ×10⁻⁶ cm/s | PAMPA-BBB Pe [2, 5]: 97 10^-6 cm/sec; Papp (in vitro; [5]): 69 ×10⁻⁶ cm/s
CCOc1ccc(O)cc1 [Hydroquinone monoethyl ether] | 13.6 µM | 35 ×10⁻⁶ cm/s | 
C=C(C)[C@H]1Cc2c(ccc3c2O[C@@H]2COc4cc(OC)c(OC)cc4[C@@H]2C3=O)O1 [rotenone, reference compound] |  |  | inhibition of cortical neurite outgrowth (total neurite length) ([1]; 24 and 48 h treatment, in words): inhibited cortical neurite outgrowth in a concentration-dependent manner
CC(C)=CCOc1c2occc2cc2ccc(=O)oc12 [Imperatorin] | 16.7 µM | 160 ×10⁻⁶ cm/s | 
CC1(C)C=Cc2c(ccc(C(=O)/C=C/c3ccccc3)c2O)O1 [NCGC00187466-01] | 2.18 µM | 10.2 ×10⁻⁶ cm/s | 
CN1CCC2=C[C@@H](O)[C@@H]3OC(=O)c4cc5c(cc4[C@H]3C21)OCO5 (stereo partly shown) [NCGC00160234-01] | 2.22 µM | 22.3 ×10⁻⁶ cm/s | Papp (in vitro; [5]): 22 ×10⁻⁶ cm/s
Oc1ccc(C2=Cc3ccc(O)cc3OC2)cc1 [Phenoxodiol] | 8.86 µM | 145 ×10⁻⁶ cm/s | AC50 [3]: 4.33 µM
COc1ccc(/C=C/C(=O)c2ccc(O)cc2O)cc1OC [2',4'-DIHYDROXY-3,4-DIMETHOXYCHALCONE] | 5.97 µM | 312 ×10⁻⁶ cm/s | PAMPA-BBB Pe [2, 5]: 312 10^-6 cm/sec
COc1ccc(CC(=O)c2ccc(O)cc2O)cc1 [ONONETIN] | 24.5 µM | 172 ×10⁻⁶ cm/s | PAMPA-BBB Pe [2, 5]: 172 10^-6 cm/sec
CC1(C)OC1COc1c2occc2cc2ccc(=O)oc12 (stereo not shown) [NCGC00160222-01] | 24.5 µM | 210 ×10⁻⁶ cm/s | 
O=C1NC(=O)C(c2c[nH]c3ccccc23)=C1c1c[nH]c2ccccc12 [Bisindolylmaleimide IV] | 10.6 µM | > 654 ×10⁻⁶ cm/s | AC50 [3]: 13.9 µM
COC(=O)[C@@H]1[C@@H]2C[C@H]3c4[nH]c5ccccc5c4CCN3C[C@@H]2CC[C@@H]1O [Beta-yohimbine] | 11.8 µM |  | Papp (in vitro): 41.8 ×10⁻⁶ cm/s
CCCC[C@@H](C)/C=C(C)/C=C(\C)C(=O)NC1=C[C@@](O)(/C=C/C=C/C=C/C(=O)NC2=C(O)CCC2=O)[C@@H]2O[C@@H]2C1=O [ManumycinA] | 6.43 µM | 64 ×10⁻⁶ cm/s | AC50 [3]: 8.33 µM
O=c1c2ccccc2oc2ccccc12 [Xanthenone] | 18.6 µM | 173 ×10⁻⁶ cm/s | 
CO[C@@H]1[C@@H](O[C@@H]2O[C@H](C)[C@@H](O[C@H]3C[C@@](C)(O)[C@@H](OC(=O)CC(C)C)[C@H](C)O3)[C@H](N(C)C)[C@H]2O)[C@@H](CC=O)C[C@@H](C)C(=O)/C=C/[C@@H]2O[C@H]2C[C@@H](C)OC(=O)C[C@H]1OC(C)=O [Magnamycin A/Carbomycin A] | 27.1 µM | 31.9 ×10⁻⁶ cm/s | Papp (in vitro; [5]): 32 ×10⁻⁶ cm/s
CCCCCc1cc(O)c2c(c1)OC(C)(C)c1ccc(C)cc1-2 [Cannabinol] | 28.2 µM | 20.6 ×10⁻⁶ cm/s | AC50 [3]: 35.2 µM; Papp (in vitro; [5]): 21 ×10⁻⁶ cm/s
COc1cc2c(O)c3c(c(-c4ccc5c(c4)OCO5)c2cc1OC)C(=O)OC3 [NCGC00077816-01] | 11 µM | 187 ×10⁻⁶ cm/s | AC50 [3]: 6.51 µM
O=c1c(-c2ccc(O)cc2)coc2cc(O)cc(O)c12 [Genistein] | 33.4 µM | 35.4 ×10⁻⁶ cm/s | Papp (in vitro; [5]): 35 ×10⁻⁶ cm/s
COC1=C[C@@]23CCN(C)[C@H](Cc4ccc(OC)c(O)c42)C3=CC1=O [(-)-Sinoacutine] | 15.2 µM | 11.5 ×10⁻⁶ cm/s | 
CC[C@H](C)[C@H]1O[C@]2(C=C[C@@H]1C)C[C@@H]1C[C@@H](C/C=C(\C)[C@@H](O[C@H]3C[C@H](OC)[C@@H](O[C@H]4C[C@H](OC)[C@@H](O)[C@H](C)O4)[C@H](C)O3)[C@@H](C)/C=C/C=C3\CO[C@@H]4[C@H](O)C(C)=C[C@@H](C(=O)O1)[C@]34O)O2 [Avermectin B1A] | 25.9 µM | 35 ×10⁻⁶ cm/s | AC50 [3]: 17.2 µM
CC(=O)O[C@@H]1C[C@@]2(C)[C@H](c3ccoc3)C[C@H]3O[C@]32[C@]2(C)C(=O)C(O)=C3C(C)(C)C(=O)C=C[C@]3(C)C12 (stereo partly shown) [NCGC00179158-03] | 2.77 µM | 17.6 ×10⁻⁶ cm/s | AC50 [3]: 2.35 µM; Papp (in vitro; [5]): 18 ×10⁻⁶ cm/s

Compound | AC50 ([1]; Homo sapiens, Neuron) | Papp (in vitro; [4]) | also measured
CC1=C[C@H](O)CC(C)(C)[C@H]1/C=C/C(C)=C/C=C/C(C)=C/C=C/C=C(C)/C=C/C=C(C)/C=C/C1=C(C)C[C@@H](O)CC1(C)C [Lutein] | 24.2 µM | 28 ×10⁻⁶ cm/s | AC50 [3]: 21.1 µM
CN1[C@@H](CC(=O)c2ccccc2)CCC[C@H]1C[C@H](O)c1ccccc1 [Lobeline hydrochloride] | 9.96 µM | 31.8 ×10⁻⁶ cm/s | AC50 [3]: 22.5 µM; Papp (in vitro; [5]): 32 ×10⁻⁶ cm/s
C=C(C)[C@@]12OC3(c4ccccc4)O[C@@H]1[C@@H]1[C@@H]4O[C@]4(CO)[C@@H](O)[C@]4(O)C(=O)C(C)=C[C@H]4[C@@]1(O3)[C@H](C)[C@H]2OC(=O)/C=C/C=C/c1ccccc1 [Mezerein] | 16.3 µM | 15.6 ×10⁻⁶ cm/s | AC50 [3]: 9.41 µM; Papp (in vitro; [5]): 16 ×10⁻⁶ cm/s
COc1cc(C)cc(O)c1 [3-methoxy-5-methylphenol] | 13.4 µM | 49.7 ×10⁻⁶ cm/s | 
CC=C1CN2CC[C@]34C(=C(C=O)[C@@H]1C[C@H]23)Nc1c(O)cccc14 [NCGC00160220-01] | 0.157 µM | 18.2 ×10⁻⁶ cm/s | PAMPA-BBB Pe [2, 5]: 18 10^-6 cm/sec
O=C1C=C2C=C[C@@H]3C[C@@]2(O1)[C@H]1CCCCN31 [Securinine] | 16.2 µM | 22 ×10⁻⁶ cm/s | PAMPA-BBB Pe [2, 5]: 22 10^-6 cm/sec
CC(=O)c1c(O)cccc1O [NCGC00166008-01] | 1.98 µM | 44.7 ×10⁻⁶ cm/s | 
S=c1ccss1 [D3T, 3H-1,2-dithiole-3-thione] | 51.2 µM | 97.8 ×10⁻⁶ cm/s | 
c1cc2c(cc1[C@H]1OC[C@H]3[C@@H]1CO[C@@H]3c1ccc3c(c1)OCO3)OCO2 [Sesamin] | 14.2 µM | 211 ×10⁻⁶ cm/s | Papp (in vitro; [5]): 211 ×10⁻⁶ cm/s
C/C(=C\COc1c2ccoc2cc2oc(=O)ccc12)CCC(O)C(C)(C)O (stereo not shown) [6,7-dihydroxy Bergamottin] | 6.03 µM | 54.7 ×10⁻⁶ cm/s | 
COc1cc2c(c(OC)c1OC)-c1c(cc(OC)c(OC)c1OC)C[C@H](C)[C@H](C)C2 [Deoxyschizandrin] | 15.9 µM | 171 ×10⁻⁶ cm/s | 
C/C=C(/C)C(=O)O[C@H]1CC(C)=CC(=O)[C@@]2(C)CC[C@@](O)(C(C)C)[C@H]12 [NCGC00163582-01] |  |  | PAMPA-BBB Pe [2, 5]: 125 10^-6 cm/sec
CC1=CC(=O)C2=C(C)C[C@@H]3OC(=O)[C@@H](C)[C@H]3C=C12 [NCGC00160288-01] |  |  | PAMPA-BBB Pe [2, 5]: 74 10^-6 cm/sec
COc1cc(O)c2c(c1)/C=C/C[C@H](O)[C@H](O)[C@H](O)CCC[C@H](C)OC2=O [NCGC00189513-01] |  |  | PAMPA-BBB Pe [2, 5]: 245 10^-6 cm/sec
Cn1cccc1-c1cccnc1 [beta-NICOTYRINE] | 8.46 µM | 102 ×10⁻⁶ cm/s | 
CSC(=S)NCc1c[nH]c2ccccc12 [BRASSININ] | 6.34 µM | 267 ×10⁻⁶ cm/s | PAMPA-BBB Pe [2, 5]: 267 10^-6 cm/sec
COC(=O)c1c(OC)cc2c(c1C)Oc1c(Cl)c(O)c(Cl)c(C)c1C(=O)O2 [NCGC00095466-04] |  |  | PAMPA-BBB Pe [2, 5]: 27 10^-6 cm/sec
O=C1CCC[C@H]2[C@H]3CCCN4CCCC(=CN12)[C@@H]34 [NCGC00160276-01] |  |  | PAMPA-BBB Pe [2, 5]: 33 10^-6 cm/sec
OC1c2ccccc2N=C2CCCN21 (stereo not shown) [NCGC00163606-01] |  |  | PAMPA-BBB Pe(10^-6 cm/sec) [2]: 5.3 10^-6 cm/sec
COc1cc(C(=O)OC2C[C@H]3CC[C@@H](C2)N3C)ccc1O (stereo partly shown) [NCGC00179405-02] |  |  | PAMPA-BBB Pe(10^-6 cm/sec) [2]: 8.5 10^-6 cm/sec
O=C1c2ccccc2-[n+]2ccc3c([nH]c4ccccc43)c21 [NCGC00346951-03] |  |  | PAMPA-BBB Pe(10^-6 cm/sec) [2]: <1 10^-6 cm/sec
COC(=O)C1=CC[C@@]23CC[C@@H]([C@@](C)(/C=C/C=C(\C)C(=O)O)OC2=O)[C@@]3(OC(C)=O)CC1 [NCGC00344122-04] |  |  | PAMPA-BBB Pe(10^-6 cm/sec) [2]: <1 10^-6 cm/sec
